Measured values from patent US4272524A, “N-Acyl-muramyl peptide derivatives having anti-infectious infections properties” (priority 1976, dated 1981).

System: Klebsiella pneumoniae
Assay: Response of mice to an intramuscular infection by 10^4 Klebsiella pneumoniae (Table 2)
Format: in vivo
[1] = i.v. hour + 1 after inoculation, 100 μg per animal
[2] = per os day-1, 2,000 μg per animal

Molecule | Survival (%) D + 3 (i.v. day-1, 100 μg per animal) [%] | Survival (%) D + 5 (i.v. day-1, 100 μg per animal) [%] | Survival (%) D + 8 (i.v. day-1, 100 μg per animal) [%] | Survival (%) D + 3 [1] [%] | Survival (%) D + 5 [1] [%] | Survival (%) D + 8 [1] [%] | Survival (%) D + 3 [2] [%] | Survival (%) D + 5 [2] [%] | Survival (%) D + 8 [2] [%] | Survival (%) D + 3 (s.c. day-1, 100 μg per animal) [%] | Survival (%) D + 5 (s.c. day-1, 100 μg per animal) [%] | Survival (%) D + 8 (s.c. day-1, 100 μg per animal) [%]
CC(=O)N[C@H]1C(O)O[C@H](CO)[C@@H](O)[C@@H]1O[C@H](C)C(=O)N[C@@H](C)C(=O)N[C@H](CCC(N)=O)C(=O)O (stereo partly drawn) [Ac--Mur--L-Ala--D-Glu--γ(NH2)] | 92 | 79 | 67 |  |  |  |  |  |  |  |  | 
Ac--Mur--L-Ala--D-Glu-- γ(L-Ala)--NH2 [Ac--Mur--L-Ala--D-Glu--(L-Ala)--NH2] | 100 | 94 | 63 |  |  |  |  |  |  |  |  | 
Ac--Mur--L-Ala--D-Glu-- γ(L-Lys)--NH2 [Ac--Mur--L-Ala--D-Glu--(L-Lys)--NH2] | 100 | 93 | 73 | 91 | 78 | 66 | 81 | 81 | 56 | 100 | 81 | 75
Ac--Mur--L-Ala--D-Glu-- γ(L-Lys--L-Ala)--NH2 [Ac--Mur--L-Ala--D-Glu--(L-Lys--L-Ala)] | 96 | 79 | 71 |  |  |  |  |  |  |  |  | 
